Drawing on US10435388B2, “Selective inhibitors of clinically important mutants of the EGFR tyrosine kinase” (CS PHARMATECH LIMITED, priority 2016, dated 2019), this text covers IC50 for 19 compounds.

Holding throughout (conditions): cellular proliferation, several runs
In one assay the test system is H1975 cells (DM). The assay is described as follows: H1975 inhibition assay (cell proliferation), Method B. It is filed as cell-based. How it is done:
(§1) Cell Proliferation Assays—Method B
H1975 Inhibition Assay (Cell Proliferation).
(§2) Test compounds were dissolved in DMSO at 30 mM.
(§3) The final concentration was 1,000 cells/well. Add medium only as low control. […] 5% CO2 incubator for 72 hours.
(§4) After 72 hours incubation, remove the plates from incubator and equilibrate at room temperature for 15 minutes. Incubate the CellTiter Glo reagents (Promega, G9243) at 37° C. before the experiment. The buffer was equilibrated to room temperature and used to dissolve the substrate. To determine the cell viability, add 40 μL of CellTiter-Glo reagent into each well to be detected (at 1:1 to culture medium). Then the place the plates at room temperature for 30 min followed by read on EnSpire (PerkinElmer).
(§5) For estimation of IC50, the luminescence readout are transformed to % Inhibition by applying the following equation: The IC50 was then
(§6) [formula] calculated by fitting in XLFit to a four parameters logistic curve.

The next assay concerns PC9 cells (SM). Put plainly: PC-9 growth inhibition assay (cell proliferation), Method B. The class given is cell-based, human. How it is done:
as §1, §2, §3, §4, §5, §6
PC-9 Growth Inhibition Assay (Cell Proliferation).
The inhibition assay of PC-9 cells was conducted in the same manner as described above for H1975 cells.

Another assay relates to A431 cells (WT). Put plainly: A431 inhibition assay (cell proliferation), Method B. The class given is cell-based, human. How it is done: as §1
A431 Inhibition Assay, (Cell Proliferation).
The rest procedure was conducted in the same manner as described above for H1975 cells.

Counter-ions that a name gives are not always drawn.

With `C=CC(=O)Nc1cc(Nc2nccc(-c3c[nH]c4c(=O)[nH]ccc34)n2)c(OC)cc1N(C)CCN(C)C` [Example 22, N-(2-((2-(Dimethylamino)ethyl)(methyl)amino)-4-methoxy-5-((4-(7-oxo-6,7-dihydro-1H-pyrrolo[2,3-c]pyridin-3-yl)pyrimidin-2-yl)amino)phenyl) acrylamide], the IC50 in the assay with H1975 cells (DM) (Homo sapiens, NCI-H1975, 72 h) was found to be 0.137 µM; in the assay with H1975 cells (DM) (72 h) it was 0.0927 µM; with PC9 cells (SM) (Homo sapiens, PC-9, 72 h), 0.0626 µM; with PC9 cells (SM) (72 h), 0.0524 µM; in the assay on A431 cells (WT) (Homo sapiens, A-431, 72 h) it was 1.69 µM; in the assay with A431 cells (WT) (72 h) it was 1.19 µM.

Consider `C=CC(=O)Nc1cc(Nc2ncc(Cl)c(-c3cncc(C(N)=O)c3)n2)c(OC)cc1N(C)CCN(C)C` [Example 24, 5-(2-((5-Acrylamido-4-((2-(dimethylamino)ethyl)(methyl)amino)-2-methoxyphenyl)amino)-5-chloropyrimidin-4-yl)nicotinamide hydrochloride], for which the IC50 was 0.103 µM with H1975 cells (DM) (Homo sapiens, NCI-H1975, 72 h); 0.067 µM in the assay on PC9 cells (SM) (Homo sapiens, PC-9, 72 h); 6.99 µM with A431 cells (WT) (Homo sapiens, A-431, 72 h).

Regarding `C=CC(=O)Nc1cc(Nc2ncc(Cl)c(-c3ccc(NC)nc3)n2)c(OC)cc1N(C)CCN(C)C` [Example 25, N-(5-((5-Chloro-4-(6-(methylamino)pyridin-3-yl)pyrimidin-2-yl)amino)-2-((2-(dimethylamino)ethyl)(methyl)amino)-4-methoxyphenyl) acrylamide], the IC50 with H1975 cells (DM) (Homo sapiens, NCI-H1975, 72 h) was determined as 0.0198 µM; in the assay on PC9 cells (SM) (Homo sapiens, PC-9, 72 h), 0.0631 µM; in the assay on A431 cells (WT) (Homo sapiens, A-431, 72 h), 2.1 µM.

As for `C=CC(=O)Nc1cc(Nc2ncc(Cl)c(-c3ccc(N(C)C)nc3)n2)c(OC)cc1N(C)CCN(C)C` [Example 26, N-(5-((5-Chloro-4-(6-(dimethylamino)pyridin-3-yl)pyrimidin-2-yl)amino)-2-((2-(dimethylamino)ethyl)(methyl)amino)-4-methoxyphenyl) acrylamide], the IC50 came to 0.025 µM with H1975 cells (DM) (Homo sapiens, NCI-H1975, 72 h); 0.0373 µM in the assay on PC9 cells (SM) (Homo sapiens, PC-9, 72 h); 1.03 µM with A431 cells (WT) (Homo sapiens, A-431, 72 h).

On to `C=CC(=O)Nc1cc(Nc2nccc(-c3cnc(NC)c(C(N)=O)c3)n2)c(OC)cc1N(C)CCN(C)C` [Example 28, 5-(2-((5-Acrylamido-4-((2-(dimethylamino)ethyl)(methyl)amino)-2-methoxyphenyl)amino)pyrimidin-4-yl)-2-(methylamino)nicotinamide], for which the IC50 was 0.022 µM with PC9 cells (SM) (Homo sapiens, PC-9, 72 h); 0.026 µM in the assay with PC9 cells (SM) (72 h); 2.23 µM in the assay on A431 cells (WT) (Homo sapiens, A-431, 72 h); 1.71 µM in the assay with A431 cells (WT) (72 h).

As for `C=CC(=O)Nc1cc(Nc2nccc(-n3nc(C(N)=O)c4c3CCC4)n2)c(OC)cc1N(C)CCN(C)C` [Example 29, 1-(2-((5-Acrylamido-4-((2-(dimethylamino)ethyl)(methyl)amino)-2-methoxyphenyl)amino)pyrimidin-4-yl) cyclopenta[c]pyrazole-3-carboxamide], the IC50 in the assay with H1975 cells (DM) (Homo sapiens, NCI-H1975, 72 h) was 0.00524 µM; in the assay with PC9 cells (SM) (Homo sapiens, PC-9, 72 h), 0.0237 µM; with A431 cells (WT) (Homo sapiens, A-431, 72 h) it was 0.777 µM.

With `C=CC(=O)Nc1cc(Nc2nccc(-c3cc(C(N)=O)c4c(c3)c(Cl)cn4C)n2)c(OC)cc1N(C)CCN(C)C` [Example 32, 5-(2-((5-Acrylamido-4-((2-(dimethylamino)ethyl)(methyl)amino)-2-methoxyphenyl)amino)pyrimidin-4-yl)-3-chloro-1N-methyl-1H-indole-7-carboxamide hydrochloride], the half-inhibitory concentration (IC50) with H1975 cells (DM) (Homo sapiens, NCI-H1975, 72 h) stood at 0.00392 µM; in the assay on H1975 cells (DM) (72 h, hydrochloride) it was 0.0032 µM; with PC9 cells (SM) (Homo sapiens, PC-9, 72 h), 0.00852 µM; in the assay on PC9 cells (SM) (72 h, hydrochloride), 0.0119 µM; in the assay with A431 cells (WT) (Homo sapiens, A-431, 72 h), 1.08 µM; in the assay with A431 cells (WT) (72 h, hydrochloride) it was 0.784 µM.

Turning to `C=CC(=O)Nc1cc(Nc2nccc(-c3c[nH]c(=O)c4c3ccn4C)n2)c(OC)cc1N(C)CCN(C)C` [Example 33, N-(2-((2-(Dimethylamino)ethyl)(methyl)amino)-4-methoxy-5-((4-(1N-methyl-7-oxo-6,7-dihydro-1H-pyrrolo[2,3-c]pyridin-4-yl)pyrimidin-2-yl)amino)phenyl) acrylamide], the IC50 is 0.00633 µM with H1975 cells (DM) (Homo sapiens, NCI-H1975, 72 h); 0.0099 µM with PC9 cells (SM) (Homo sapiens, PC-9, 72 h); 0.0885 µM in the assay on A431 cells (WT) (Homo sapiens, A-431, 72 h).

`C=CC(=O)Nc1cc(Nc2nccc(-n3nc(C(F)F)c4ccccc43)n2)c(OC)cc1N(C)CCN(C)C` [Example 35, N-(5-((4-(3-(Difluoromethyl)-1H-indazol-1-yl)pyrimidin-2-yl)amino)-2-((2-(dimethylamino)ethyl)(methyl)amino)-4-methoxyphenyl) acrylamide hydrochloride]: the IC50 was 0.0294 µM in the assay on H1975 cells (DM) (Homo sapiens, NCI-H1975, 72 h); 0.0333 µM in the assay with PC9 cells (SM) (Homo sapiens, PC-9, 72 h); 2.02 µM in the assay with A431 cells (WT) (Homo sapiens, A-431, 72 h).

For the compound `C=CC(=O)Nc1cc(Nc2nccc(-c3cc(C)c[nH]c3=O)n2)c(OC)cc1N(C)CCN(C)C` [Example 37, N-(2-((2-(Dimethylamino)ethyl)(methyl)amino)-4-methoxy-5-((4-(5-methyl-2-oxo-1,2-dihydropyridin-3-yl)pyrimidin-2-yl)amino)phenyl) acrylamide], the IC50 in the assay on H1975 cells (DM) (Homo sapiens, NCI-H1975, 72 h) came out at 0.0219 µM; in the assay with PC9 cells (SM) (Homo sapiens, PC-9, 72 h), 0.022 µM; with A431 cells (WT) (Homo sapiens, A-431, 72 h), 0.588 µM.

Turning to `C=CC(=O)Nc1cc(Nc2ncc(Cl)c(-c3c[nH]c(=O)c(C)c3)n2)c(OC)cc1N(C)CCN(C)C` [Example 38, N-(5-((5-Chloro-4-(3-methyl-2-oxo-1,6-dihydropyridin-5-yl)pyrimidin-2-yl)amino)-2-((2-(dimethylamino)ethyl)(methyl)amino)-4-methoxyphenyl) acrylamide], the IC50 with H1975 cells (DM) (Homo sapiens, NCI-H1975, 72 h) came to 0.082 µM; with PC9 cells (SM) (Homo sapiens, PC-9, 72 h), 0.0827 µM; in the assay on A431 cells (WT) (Homo sapiens, A-431, 72 h), 1.32 µM.

On to `C=CC(=O)Nc1cc(Nc2nccc(-c3c[nH]c4c(C(=O)NC)cccc34)n2)c(OC)cc1N(C)CCN(C)C` [Example 39, N-Methyl 3-(2-((5-acrylamido-4-((2-(dimethylamino)ethyl)(methyl)amino)-2-methoxyphenyl)amino)pyrimidin-4-yl)-1H-indole-7-carboxamide], for which the IC50 stood at 0.00052 µM in the assay on H1975 cells (DM) (Homo sapiens, NCI-H1975, 72 h); 0.00074 µM in the assay with PC9 cells (SM) (Homo sapiens, PC-9, 72 h); 0.0423 µM with A431 cells (WT) (Homo sapiens, A-431, 72 h).

`C=CC(=O)Nc1cc(Nc2nccc(-c3cc(NC)cc4c3ccn4C)n2)c(OC)cc1N(C)CCN(C)C` [Example 40, N-(5-(4-(1-Methyl-6-(methylamino)-1H-indol-4-yl)pyrimidin-2-ylamino)-2-(N-(2-(dimethylamino)ethyl)-N-methylamino)-4-methoxyphenyl) acrylamide]: the IC50 in the assay with H1975 cells (DM) (Homo sapiens, NCI-H1975, 72 h) amounted to 0.0435 µM; with PC9 cells (SM) (Homo sapiens, PC-9, 72 h), 0.063 µM; in the assay with A431 cells (WT) (Homo sapiens, A-431, 72 h), 1.88 µM.

As to `C=CC(=O)Nc1cc(Nc2nccc(-n3nc(NS(C)(=O)=O)c4ccccc43)n2)c(OC)cc1N(C)CCN(C)C` [Example 44, N-(5-(4-(3-(N-methanesulfonylamido)-1H-indazol-1-yl)pyrimidin-2-ylamino)-2-(N-(2-(dimethylamino)ethyl)-N-methylamino)-4-methoxyphenyl) acrylamide], the concentration for half-maximal inhibition (IC50) with H1975 cells (DM) (Homo sapiens, NCI-H1975, 72 h) was 0.174 µM; in the assay with PC9 cells (SM) (Homo sapiens, PC-9, 72 h), 0.475 µM; in the assay on A431 cells (WT) (Homo sapiens, A-431, 72 h), 9.07 µM.

For `C=CC(=O)Nc1cc(Nc2nccc(-c3c[nH]c4c(-c5cc[nH]n5)cccc34)n2)c(OC)cc1N(C)CCN(C)C` [Example 46, N-(5-(4-(7-(1H-Pyrazol-3-yl)-1H-indol-3-yl)pyrimidin-2-ylamino)-2-(N-(2-(dimethylamino)ethyl)-N-methylamino)-4-methoxyphenyl) acrylamide], the concentration for half-maximal inhibition (IC50) in the assay on H1975 cells (DM) (Homo sapiens, NCI-H1975, 72 h) was 0.116 µM; with PC9 cells (SM) (Homo sapiens, PC-9, 72 h) it was 0.0212 µM; with A431 cells (WT) (Homo sapiens, A-431, 72 h) it was 0.253 µM.

For the compound `C=CC(=O)Nc1cc(Nc2ncc(Cl)c(-c3cc(C(N)=O)cc4c3ccn4C)n2)c(OC)cc1N(C)CCN(C)C` [Example 47, 4-(2-(5-Acrylamido-4-((2-(dimethylamino)ethyl)(methyl)amino)-2-methoxyphenylamino)-5-chloropyrimidin-4-yl)-1-methyl-1H-indole-6-carboxamide], the IC50 in the assay on H1975 cells (DM) (Homo sapiens, NCI-H1975, 72 h) was determined as 0.00879 µM; in the assay on PC9 cells (SM) (Homo sapiens, PC-9, 72 h), 0.0123 µM; in the assay on A431 cells (WT) (Homo sapiens, A-431, 72 h), 0.404 µM.

Consider `C=CC(=O)Nc1cc(Nc2nccc(-c3c[nH]c4c(C(C)(C)C)cccc34)n2)c(OC)cc1N(C)CCN(C)C` [Example 48, N-(5-(4-(7-t-Butyl-1H-indol-3-yl)pyrimidin-2-ylamino)-2-(N-(2-(dimethylamino)ethyl)-N-methylamino)-4-methoxyphenyl) acrylamide], for which the IC50 in the assay with H1975 cells (DM) (Homo sapiens, NCI-H1975, 72 h) was 0.00348 µM; in the assay on PC9 cells (SM) (Homo sapiens, PC-9, 72 h), 0.00401 µM; in the assay with A431 cells (WT) (Homo sapiens, A-431, 72 h) it was 0.265 µM.

With `C=CC(=O)Nc1cc(Nc2nccc(-n3cc(C(N)=O)c4ncccc43)n2)c(OC)cc1N(C)CCN(C)C` [Example 49, 1-(2-(5-Acrylamido-4-((2-(dimethylamino)ethyl)(methyl)amino)-2-methoxyphenylamino)pyrimidin-4-yl)-1H-pyrrolo[3,2-b]pyridine-3-carboxamide], the IC50 came out at 0.00184 µM in the assay with H1975 cells (DM) (Homo sapiens, NCI-H1975, 72 h); 0.00061 µM in the assay on PC9 cells (SM) (Homo sapiens, PC-9, 72 h); 0.137 µM with A431 cells (WT) (Homo sapiens, A-431, 72 h).

As to `C=CC(=O)Nc1cc(Nc2nccc(-c3c[nH]c4c(N(C)C)nccc34)n2)c(OC)cc1N(C)CCN(C)C` [Example 50, N-(5-(4-(7-(Dimethylamino)-1H-pyrrolo[2,3-c]pyridin-3-yl)pyrimidin-2-ylamino)-2-(N-(2-(dimethylamino)ethyl)-N-methylamino)-4-methoxyphenyl) acrylamide], the IC50 with H1975 cells (DM) (Homo sapiens, NCI-H1975, 72 h) was 0.00762 µM; in the assay on PC9 cells (SM) (Homo sapiens, PC-9, 72 h), 0.0144 µM; with A431 cells (WT) (Homo sapiens, A-431, 72 h), 0.118 µM.
